Assay results published in paper PMC9425781, “Targeting integrin αvβ6 with gallium-68 tris (hydroxypyridinone) based PET probes” (Dalton Transactions (Cambridge, England : 2003), 2022).

Tests used:
αvβ6 = settings: cited from earlier work
Description: The two molecules 6 and 7 were conjugated to the nonapeptide cyclo-(FRGDLAFp(NMe)K)[29] (p = D-Pro; (NMe)K = N-methyl-Lys) under mild conditions, without the assistance of any activation agent, producing the two conjugates (11 and 12, Fig. 3). Noteworthy, the arginine-glycine-aspartate (RGD) sequence in cyclic peptides is known to selectively bind αv integrins. […] Moreover, the presence of the two non-proteinogenic amino acids, na ...

[1] = molecular target: T1, integrin αvβ6 (pancreatic cancer BxPC-3 cells) (Homo sapiens, UniProt P06756+P18564); test: Competitive binding assay (gamma counting, unlabelled THP-peptide vs [68Ga]Ga-labelled peptide) on BxPC-3 cells; format: cell-based; settings: for Span (best-fit value): Std. Error 0.01175 (11), 0.04901 (12), 95% CI 0.04041 to 0.08849 (11), 0.1021 to 0.3002 (12); for log IC50: non-linear regression, GraphPad Prism 9, inhibitor 0.1-5000 nM, 1 h, 37 °C, n = 4, value ± as printed in method; for LogIC50 (best-fit value): Std. Error 0.1982 (11), 0.2904 (12), 95% CI -7.123 to -6.312 (11), -7.167 to -5.993 (12); for HillSlope (best-fit value): Std. Error 0.5820 (11), 0.3994 (12), 95% CI -2.429 to -0.04897 (11), -1.659 to -0.04442 (12)
T1 construct: endogenous in cells; host or cells: BxPC-3 pancreatic cancer cells
Method: Binding of [^68Ga]Ga-Integrin αvβ6-peptide-THP (11 and 12) to αvβ6 integrin was determined in the presence of increasing concentrations of unlabelled THP-peptide conjugate (Fig. 4).
BxPC-3 were plated in 12-well plates at a density of 5 × 10^5 cells per well in 1 mL of complete culture medium, cultured overnight at 37 °C and 5% CO2. Radiolabelling with ^68Ga was done as described above, and a solution containing 15 MBq in 1.0 mL was prepared by dilution with distilled H2O. Eleven inhibitor (unlabelled peptide) concentrations were tested to estimate the IC50 value at 0.1, 0.5, 1, 5, 10, 50, 100, 250, 500, 1000, and 5000 nM. Four wells were used for each concentration (n = 4), prepared in 500 μL of complete media. Following the addition of the inhibitor, 20 μL of the radiolabelled peptide solution was added to each well, corresponding to 300 kbq per well (33 nM of the labelled peptide per well). The cells were then incubated for an hour at the same above-mentioned conditions. Following incubation, media were removed from the wells, and the cells were washed twice with cold PBS (500 μL per washing). For each well, the media and the washings were collected together. After the second wash, 500 μL of 1 M NaOH solution was added to each well to lyse the cells, and cell lysates were retrieved 10 minutes later ([…]). A final wash with PBS (500 μL per well) was undertaken and collected in the same tube as the cell lysate. All tubes (containing either medium and washings or lysate and washings) were gamma-counted using a Wallac 1282 Compugamma Universal Gamma Counter. The resulting values were analyzed using Graphpad Prism 9 software, and a non-linear regression curve was generated, from which the IC50 values (log IC50: −6.72 ± 0.20 for 11 and −6.58 ± 0.29 for 12) were obtained.

[2] = binding curve, nonlinear regression

T1 sequence (P06756 31-889 limits assumed): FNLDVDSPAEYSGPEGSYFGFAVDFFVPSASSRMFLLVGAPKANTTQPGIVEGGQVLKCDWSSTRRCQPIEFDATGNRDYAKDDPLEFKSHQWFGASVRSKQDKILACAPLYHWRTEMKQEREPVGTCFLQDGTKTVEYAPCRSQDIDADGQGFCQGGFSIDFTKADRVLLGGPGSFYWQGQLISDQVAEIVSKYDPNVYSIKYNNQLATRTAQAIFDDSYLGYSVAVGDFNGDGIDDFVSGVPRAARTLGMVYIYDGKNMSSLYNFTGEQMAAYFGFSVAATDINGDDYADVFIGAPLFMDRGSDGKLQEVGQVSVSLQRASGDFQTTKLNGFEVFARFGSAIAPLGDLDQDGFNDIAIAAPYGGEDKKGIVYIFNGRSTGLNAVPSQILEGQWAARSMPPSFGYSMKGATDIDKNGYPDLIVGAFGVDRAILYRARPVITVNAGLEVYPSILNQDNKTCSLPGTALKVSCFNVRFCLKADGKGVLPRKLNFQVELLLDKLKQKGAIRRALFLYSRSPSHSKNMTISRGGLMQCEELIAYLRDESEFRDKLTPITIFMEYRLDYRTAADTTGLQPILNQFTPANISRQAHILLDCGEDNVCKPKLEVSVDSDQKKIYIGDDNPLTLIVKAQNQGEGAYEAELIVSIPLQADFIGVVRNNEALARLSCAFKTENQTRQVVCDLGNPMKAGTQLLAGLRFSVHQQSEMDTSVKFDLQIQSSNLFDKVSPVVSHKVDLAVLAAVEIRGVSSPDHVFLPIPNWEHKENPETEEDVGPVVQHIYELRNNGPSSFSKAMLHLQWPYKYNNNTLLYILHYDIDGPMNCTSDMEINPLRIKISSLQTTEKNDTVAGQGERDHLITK
T1 sequence (P06756 891-1048 partner limits assumed): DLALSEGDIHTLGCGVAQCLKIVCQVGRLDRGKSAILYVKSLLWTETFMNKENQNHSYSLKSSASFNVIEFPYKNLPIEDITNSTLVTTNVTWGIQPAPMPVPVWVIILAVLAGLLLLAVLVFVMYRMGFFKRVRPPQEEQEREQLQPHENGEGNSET
T1 sequence (P18564 22-788): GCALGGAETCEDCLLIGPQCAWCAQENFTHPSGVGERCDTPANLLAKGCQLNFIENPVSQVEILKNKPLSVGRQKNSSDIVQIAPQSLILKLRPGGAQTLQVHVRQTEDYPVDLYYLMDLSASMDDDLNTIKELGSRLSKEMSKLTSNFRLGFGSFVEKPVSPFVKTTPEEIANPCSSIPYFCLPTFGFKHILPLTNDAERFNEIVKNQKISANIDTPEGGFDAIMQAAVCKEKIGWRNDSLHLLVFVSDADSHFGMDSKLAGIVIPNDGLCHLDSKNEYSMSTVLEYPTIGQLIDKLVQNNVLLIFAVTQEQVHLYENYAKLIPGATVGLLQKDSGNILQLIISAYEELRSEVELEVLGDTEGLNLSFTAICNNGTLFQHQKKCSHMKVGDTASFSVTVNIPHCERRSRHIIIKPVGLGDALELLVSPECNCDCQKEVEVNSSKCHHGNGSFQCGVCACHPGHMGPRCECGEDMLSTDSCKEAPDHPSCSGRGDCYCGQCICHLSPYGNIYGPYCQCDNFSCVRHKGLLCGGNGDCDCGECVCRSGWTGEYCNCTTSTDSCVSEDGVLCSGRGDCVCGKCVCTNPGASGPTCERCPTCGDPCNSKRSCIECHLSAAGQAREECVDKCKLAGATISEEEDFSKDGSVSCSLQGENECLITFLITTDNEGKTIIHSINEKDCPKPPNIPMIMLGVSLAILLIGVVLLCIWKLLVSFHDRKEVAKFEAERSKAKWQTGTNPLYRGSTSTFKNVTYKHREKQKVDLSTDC

Span (best-fit value) [1, 2]	log IC50 [1]	LogIC50 (best-fit value) ([1]; nonlinear regression)	HillSlope (best-fit value) ([1]; nonlinear regression)	Top (best-fit value) ([1]; binding curve, nonlinear regression, Std. Error 0.004453 (11), 0.01334 (12), 95% CI 0.1175 to 0.1358 (11), 0.2906 to 0.3446 (12))	Bottom (best-fit value) ([1]; binding curve, nonlinear regression, Std. Error 0.01017 (11), 0.04302 (12), 95% CI 0.04141 to 0.08300 (11), 0.02951 to 0.2034 (12))	Substance	potency and selectivity for αvβ6 (in words) (αvβ6)	IC50 (αvβ6; αvβ6)
						cyclo-(FRGDLAFp(NMe)K) (head to tail) [compound 10]	potent and selective binder for αvβ6	0.26 nM
0.06445	−6.72 ± 0.20	-6.717	-1.239			cyclo-(FRGDLAFp(NMe)K)-THPs (head to tail) [compound 11, cyclo-(FRGDLAFp(NMe)K) conjugated to THP-glutaric (6)]		
0.2012	−6.58 ± 0.29	-6.580	-0.8516	0.3176	0.1165	cyclo-(FRGDLAFp(NMe)K)-THPs (head to tail) [compound 12, cyclo-(FRGDLAFp(NMe)K) conjugated to THP-adipic (7)]		
